The values that follow come from patent EP2161028B1, “Food product comprising dipeptides having antihypertensive properties” (Unilever N.V., priority 2008, dated 2011).

Peptide text beside a SMILES is read from it.

On the set-up of this series: AUC: unit not given beside the values. Here is the method: The pH of simulated gastric fluid (SGF, 0.15 M NaCl, pH 2.5) was increased to 7.5 with […] (40 mM), and the following compounds were added to adjust the pH to 6.8 and simulate a duodenal-jejunal environment and create simulated small intestinal fluid (SIF): (i) a bile salt mixture containing equimolar quantities (0.125 M) of sodium taurocholate and glycodeoxycholic acid in NaHC03 (1 M), (ii) solutions of pancreatin from porcine pancreas (9 mg/mL) in water was prepared and added at approximately physiological ratios. The pH was adjusted to 6.8 with HCl (0.1 M). Peptides were dissolved in SIF at a final peptide concentration of 50 µM. Aliquots (1 mL) were prepared for sampling at different time points. Simulated intestinal digestion was carried out at 37°C, and aliquots (1 mL) were taken at 0, 5, 15, and 60 min after the start of the experiment. After peptide hydrolysis, digestive enzymes were inactivated at 95°C for 15 min and samples were cooled immediately on ice water and stored at -20°C until further analysis.
Quantification of dipeptides derived from digestion were performed using a liquid chromatography multiple reaction ion monitoring-mass spectrometry (LC-MRM-MS) method as described van Platerink CJ, Janssen HG, Horsten R, Haverkamp J. Quantification of ACE inhibiting peptides in human plasma using high performance liquid chromatography-mass spectrometry. J Chromatogr B Analyt Technol Biomed Life Sci 2006,830:151-157. Peptide separation was performed on an Atlantis Hilic Silica column (2.1 x 150 mm, 3 µm particle size) and a Micromass Quattro-II (Milford MA, USA) with HP1100LC system (Hewlett-Packard, USA). The gradient started at 100% 0.1 % trifluoro acetic acid in Milli-Q water and ended at 70% 0.1% trifluoro acetic acid in acetonitrile. To support the ionization, a 70/30 mixture of propionic acid and propanol-2 was added postcolumn at a flow rate of […]. All analyses were conducted on an Alliance 2795 HPLC (Waters, Milford MA, USA) combined with a Quattro Premier triple quadrupole mass spectrometer from the same supplier.
An intestinal stability data set consisting of 228 dipeptides was generated based on the results from the simulated digestion experiments. The area under the time - peptide concentration curve was calculated and used for further analysis and modelling. An ACE inhibitory dipeptide database consisting of 228 dipeptides was constructed.
For each peptide the relative stability (in % of initial dipeptide concentration) was plotted against time and the area under the curve (AUC) was calculated.

`C[C@H](NC(=O)[C@@H](N)CS)C(=O)O` [CA] (H-Cys-Ala-OH) returned an AUC of 0.
For `C[C@@H](O)[C@H](NC(=O)[C@@H](N)CS)C(=O)O` [CT] (H-Cys-Thr-OH), the “intestinal stability (in words)” value is “high intestinal stability”.
On to `C[C@@H](O)[C@H](NC(=O)[C@@H](N)CC(=O)O)C(=O)O` [DT] (H-Asp-Thr-OH), for which the “intestinal stability (in words)” value was “high intestinal stability”.
For `N[C@@H](Cc1c[nH]c2ccccc12)C(=O)N[C@@H](CC(=O)O)C(=O)O` [WD] (H-Trp-Asp-OH), the “intestinal stability (in words)” value is on record as “high intestinal stability”.
For `N[C@@H](Cc1c[nH]c2ccccc12)C(=O)N[C@@H](CO)C(=O)O` [WS] (H-Trp-Ser-OH), the “intestinal stability (in words)” value is “high intestinal stability”.
As to `C[C@@H](O)[C@H](NC(=O)[C@@H](N)Cc1c[nH]c2ccccc12)C(=O)O` [WT] (H-Trp-Thr-OH), the “intestinal stability (in words)” value is reported as “high intestinal stability”.
